In ChEMBL document CHEMBL5338775, “Discovery of a Novel Class of PROTACs as Potent and Selective Estrogen Receptor α Degraders to Overcome Endocrine-Resistant Breast Cancer In Vitro and In Vivo” (J Med Chem, 2023):
Calls of active or inactive are those of the source. The calls are words filed in the database; no cut-off is given here. Residues, ends and D or L forms follow the SMILES beside them. *: point of attachment. Cbz = O=C(OCc1ccccc1)*

Columns and labels:
T47D [1] = assay: cells; conditions: Homo sapiens, 72 h
Estrogen receptor = target: T1, Estrogen receptor (Homo sapiens, UniProt P03372)
T1 sequence (P03372 whole entry): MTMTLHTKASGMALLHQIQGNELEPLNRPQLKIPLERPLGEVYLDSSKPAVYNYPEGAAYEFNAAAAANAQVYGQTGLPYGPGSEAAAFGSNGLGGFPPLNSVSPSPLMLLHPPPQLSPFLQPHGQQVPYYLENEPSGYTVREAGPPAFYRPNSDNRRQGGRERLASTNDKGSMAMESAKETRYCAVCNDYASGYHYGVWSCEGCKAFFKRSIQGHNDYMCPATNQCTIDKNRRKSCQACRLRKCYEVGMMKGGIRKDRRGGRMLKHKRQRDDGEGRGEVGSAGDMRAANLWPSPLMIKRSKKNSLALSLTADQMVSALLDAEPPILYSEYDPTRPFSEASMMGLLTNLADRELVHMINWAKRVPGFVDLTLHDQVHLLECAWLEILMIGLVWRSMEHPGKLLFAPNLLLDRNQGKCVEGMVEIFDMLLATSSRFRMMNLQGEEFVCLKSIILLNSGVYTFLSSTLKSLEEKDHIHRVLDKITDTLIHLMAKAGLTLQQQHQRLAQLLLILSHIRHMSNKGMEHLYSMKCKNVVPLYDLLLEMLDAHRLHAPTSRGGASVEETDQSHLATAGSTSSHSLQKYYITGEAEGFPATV

cells = conditions: Homo sapiens, Tamoxifen-resistant LCC2 cell, 72 h
in vitro = conditions: human, MCF-10A cells
T47D [2] = assay: cells; conditions: Homo sapiens, 72 h; remark: listed apart in the source
Estrogen receptor beta [3] = target: T2, Estrogen receptor beta (Homo sapiens, UniProt Q92731)
T47D [4] = assay: cells; conditions: Homo sapiens, 72 h; remark: listed apart in the source
[5] = target: T3, von Hippel-Lindau disease tumor suppressor/Estrogen receptor (Homo sapiens) (UniProt P03372+P40337); assay: PROTAC activity at VHL/wild type ERalpha in ER-positive human T47D cells assessed as induction of ERalpha degradation at 2 uM incubated for 12 hrs by Western blot analysis; assay type: cell-based
[6] = Selectivity index, ratio of Ki for ERalpha (unknown origin) to Ki for ERbeta (unknown origin)
[7] = target: T3, von Hippel-Lindau disease tumor suppressor/Estrogen receptor (Homo sapiens); assay: PROTAC activity at VHL/ERalpha in ER-positive human tamoxifen-resistant LCC2 cells assessed as induction of ERalpha degradation at 2 uM incubated for 12 hrs by Western blot analysis; assay type: cell-based; conditions: tamoxifen-resistant LCC2 cell
MCF7 [8] = assay: cells; conditions: Homo sapiens, MCF7, 72 h
MDA-MB-231 = assay: cells; conditions: Homo sapiens, MDA-MB-231, 72 h
[9] = Selectivity ratio of relative binding affinity for ERalpha (unknown origin) to relative binding affinity to ERbeta (unknown origin)
Estrogen receptor beta [10] = target: T2, Estrogen receptor beta; assay: Binding affinity to ERbeta (unknown origin) assessed as relative binding affinity incubated for 2 hrs by fluorescence polarization assay relative to estradiol
[11] = target: T3, von Hippel-Lindau disease tumor suppressor/Estrogen receptor (Homo sapiens); assay: PROTAC activity at VHL/wild type ERalpha in ER-positive human MCF7 cells assessed as induction of ERalpha degradation at 1 uM incubated for 12 hrs by Western blot analysis; assay type: cell-based
[12] = target: T4, Estrogen receptor (Homo sapiens) (UniProt P03372); assay: Induction of ERalpha degradation in ER-positive human MCF7 cells at 5 uM incubated for 12 hrs by Western blot analysis; assay type: cell-based
T4 sequence (whole entry): T1 sequence (P03372 whole entry)

[13] = target: T3, von Hippel-Lindau disease tumor suppressor/Estrogen receptor (Homo sapiens); assay: PROTAC activity at VHL/ERalpha in ER-positive human MCF7 cells assessed as induction of ERalpha degradation at 1 to 5 uM incubated for 12 hrs by Western blot analysis; assay type: cell-based; conditions: dose 1-5 µM
[14] = target: T4, Estrogen receptor (Homo sapiens); assay: Inhibition of ERalpha binding to DNA in human T47D cells assessed as reduction in protein occupancy incubated for 6 hrs by ChIP-seq analysis; assay type: cell-based
MCF7 [15] = assay: Antitumor activity against human tamoxifen-sensitive MCF7 cells xenografted in BALB/c nude mouse assessed as inhibition of tumor growth at 5 micromol/kg, ip administered once every 2 days and measured every 2 days; assay type: functional, organism-based; conditions: dose 5.0 µmol/kg
T47D [16] = assay: Inhibition of nascent GREB1 RNA synthesis in human T47D cells incubated for 6 hrs by 4-thiouridine incorporation assay; assay type: functional, cell-based
T47D [17] = assay: Inhibition of gene transcription in human T47D cells assessed as reduction in Pol II occupancy at IGFBP4 promoter region by ChIP-seq analysis; assay type: functional, cell-based
MCF7 [18] = assay: Antitumor activity against human tamoxifen-sensitive MCF7 cells xenografted in BALB/c nude mouse assessed as reduction in cell proliferation at 5 micromol/kg, ip administered once every 2 days by ki67 staining based analysis; assay type: functional, organism-based; conditions: dose 5.0 µmol/kg
T47D [19] = assay: Inhibition of gene transcription in human T47D cells assessed as reduction in H3K27ac levels in IGFBP4 promoter region by ChIP-seq analysis; assay type: functional, cell-based
MCF7 [20] = assay: Antitumor activity against human tamoxifen-sensitive MCF7 cells xenografted in BALB/c nude mouse assessed as increase in tumor necrosis area at 5 micromol/kg, ip administered once every 2 days by […] staining based analysis; assay type: functional, organism-based; conditions: dose 5.0 µmol/kg
Mus musculus = assay: In vivo protac activity at VHL/ERalpha in BALB/c nude mouse xenografted with human tamoxifen-sensitive MCF7 cells assessed as reduction in ERalpha protein levels in tumor at 5 micromol/kg, ip administered once every 2 days by Western blot analysis; assay type: functional, organism-based; conditions: dose 5.0 µmol/kg
T47D [21] = assay: Inhibition of nascent IGFBP4 RNA synthesis in human T47D cells incubated for 6 hrs by 4-thiouridine incorporation assay; assay type: functional, cell-based
T47D [22] = assay: Inhibition of gene transcription in human T47D cells assessed as reduction in H3K27ac levels in GREB1 promoter region by ChIP-seq analysis; assay type: functional, cell-based
T47D [23] = assay: Inhibition of gene transcription in human T47D cells assessed as reduction in Pol II occupancy at GREB1 promoter region by ChIP-seq analysis; assay type: functional, cell-based
[24] = target: T4, Estrogen receptor (Homo sapiens); assay: Induction of ERalpha degradation in ER-positive human MCF7 cells at 1 uM incubated for 12 hrs in presence of N-ethyl-5,6-bis(4-hydroxyphenyl)-N-(4-methoxyphenyl)-7-oxabicyclo[2.2.1]hept-5-ene-2-sulfonamide by Western blot analysis; assay type: cell-based
[25] = target: T4, Estrogen receptor (Homo sapiens); assay: Induction of ERalpha degradation in ER-positive human MCF7 cells at 1 uM incubated for 12 hrs by Western blot analysis; assay type: cell-based
[26] = target: T4, Estrogen receptor (Homo sapiens); assay: Induction of ERalpha degradation in ER-positive human MCF7 cells at 10 uM incubated for 12 hrs by Western blot analysis; assay type: cell-based
Estrogen receptor beta [27] = target: T2, Estrogen receptor beta; assay: Induction of ERbeta degradation in human NCI-H1975 cells at 10 uM incubated for 12 hrs by Western blot analysis; assay type: cell-based
Estrogen receptor beta [28] = target: T2, Estrogen receptor beta; assay: Induction of ERbeta degradation in human NCI-H1975 cells at 1 to 10 uM incubated for 12 hrs by Western blot analysis; assay type: cell-based; conditions: dose 1-10 µM
[29] = target: T4, Estrogen receptor (Homo sapiens); assay: Induction of ERalpha degradation in ER-positive human MCF7 cells at 1 to 10 uM incubated for 12 hrs by Western blot analysis; assay type: cell-based; conditions: dose 1-10 µM
[30] = target: T4, Estrogen receptor (Homo sapiens); assay: Induction of ERalpha degradation in ER-positive human MCF7 cells at 1 uM incubated for 12 hrs in presence of (2S,4R)-1-[(2S)-2-amino-3,3-dimethylbutanoyl]-4-hydroxy-N-[(1S)-1-[4-(4-methyl-1,3-thiazol-5-yl)phenyl]ethyl]pyrrolidine-2-carboxamide by Western blot analysis; assay type: cell-based

T3 sequence (P40337 whole entry, looked up, one chain of several): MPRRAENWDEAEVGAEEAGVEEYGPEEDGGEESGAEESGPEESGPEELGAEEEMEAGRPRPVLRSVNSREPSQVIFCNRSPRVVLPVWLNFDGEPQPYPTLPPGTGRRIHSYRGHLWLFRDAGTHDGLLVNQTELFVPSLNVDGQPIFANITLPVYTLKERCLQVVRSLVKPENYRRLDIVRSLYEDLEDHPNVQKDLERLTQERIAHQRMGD
T2 sequence (Q92731 whole entry): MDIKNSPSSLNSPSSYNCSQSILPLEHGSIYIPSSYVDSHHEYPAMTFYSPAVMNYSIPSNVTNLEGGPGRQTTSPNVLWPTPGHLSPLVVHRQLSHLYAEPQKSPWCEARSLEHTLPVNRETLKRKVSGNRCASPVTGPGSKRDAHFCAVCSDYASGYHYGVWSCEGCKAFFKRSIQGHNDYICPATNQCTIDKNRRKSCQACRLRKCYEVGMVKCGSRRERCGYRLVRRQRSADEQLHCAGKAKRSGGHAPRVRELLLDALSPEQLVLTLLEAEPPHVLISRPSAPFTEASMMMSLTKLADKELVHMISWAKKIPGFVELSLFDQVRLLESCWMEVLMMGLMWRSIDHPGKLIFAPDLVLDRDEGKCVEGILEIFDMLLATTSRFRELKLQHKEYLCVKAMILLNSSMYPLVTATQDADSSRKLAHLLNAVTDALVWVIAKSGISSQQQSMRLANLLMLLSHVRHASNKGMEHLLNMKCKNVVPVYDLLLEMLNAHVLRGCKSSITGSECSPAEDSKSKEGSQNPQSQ

Structure (SMILES) | IC50 (T47D [1]) [µM] | Ki (Estrogen receptor) [µM] | IC50 (cells) [µM] | IC50 at 72 h (in vitro) [µM] | IC50 (T47D [2]) [µM] | Ki (Estrogen receptor beta [3]) [µM] | IC50 (T47D [4]) [µM] | Ratio Ki [6] | IC50 (MCF7 [8]) [µM] | IC50 (MDA-MB-231) [µM] | Selectivity ratio [9] | RBA (Estrogen receptor beta [10]) [%] | also measured
CCN(c1ccc(OCCCCCC(=O)N[C@H](C(=O)N2C[C@H](O)C[C@H]2C(=O)NCc2ccc(-c3scnc3C)cc2)C(C)(C)C)cc1)S(=O)(=O)C1CC2OC1C(c1ccc(O)cc1)=C2c1ccc(O)cc1 (some centres undefined) | 0.73 | 1.85 | 14.2 | 5.17 | 1.78 | 9.83 | 0.76 | 5.32 | 1.61 | > 100 | 1.38 | 0.08 | Activity [5]: Active; Activity [7]: Active; Activity [11]: Active
CC(C)C[C@@H](C=O)NC(=O)[C@H](CC(C)C)NC(=O)[C@H](CC(C)C)NC(=O)OCc1ccccc1 (Cbz-Leu-Leu-Leu-aldehyde) |  |  |  |  |  |  |  |  |  |  |  |  | Activity [12]: inactive
CCN(c1ccc(OCCCCCC(=O)N[C@H](C(=O)N2C[C@@H](O)C[C@H]2C(=O)N[C@@H](C)c2ccc(-c3scnc3C)cc2)C(C)(C)C)cc1)S(=O)(=O)C1CC2OC1C(c1ccc(O)cc1)=C2c1ccc(O)cc1 (some centres undefined) | > 50 | 1.56 | > 50 | > 100 | > 50 | 4.91 | > 50 | 3.15 | > 50 | > 100 | 0.81 | 0.16 | Activity [13]: inactive
Cc1ncsc1-c1ccc(CNC(=O)[C@@H]2C[C@@H](O)CN2C(=O)[C@@H](NC(=O)CCCCCOc2ccc(N(CC(F)(F)F)S(=O)(=O)C3CC4OC3C(c3ccc(O)cc3)=C4c3ccc(O)cc3)cc2)C(C)(C)C)cc1 (some centres undefined) | 11.3 | 2.9 | 13 | 1.35 | 9.28 | 19.7 | 12.6 | 6.78 | 0.11 | > 100 | 1.75 | 0.04 | Activity [5]: Active; Activity [7]: Active; Activity [11]: Active
COc1ccc(N(CC(F)(F)F)S(=O)(=O)C2CC3OC2C(c2ccc(OCCCCCC(=O)N[C@H](C(=O)N4C[C@H](O)C[C@H]4C(=O)N[C@@H](C)c4ccc(-c5scnc5C)cc4)C(C)(C)C)cc2)=C3c2ccc(O)cc2)cc1 (some centres undefined) | > 30 | 2.54 | > 30 | > 100 | > 30 | 26.2 | > 30 | 10.3 | > 10 | > 100 | 2.67 | 0.03 | Activity [11]: inactive
C[C@]12CC[C@@H]3c4ccc(O)cc4C[C@@H](CCCCCCCCC[S+]([O-])CCCC(F)(F)C(F)(F)F)[C@H]3[C@@H]1CC[C@@H]2O (some centres undefined) [FULVESTRANT] | 3.92 |  | 11.8 |  | 2.21 |  | 1.76 |  | 0.33 | > 100 |  |  | inhibition [14]: Active; inhibition (MCF7 [15]): Active; inhibition (T47D [16]): Active; inhibition (T47D [17]): Active; Activity (MCF7 [18]): Active; inhibition (T47D [19]): Active; Activity (MCF7 [20]): Active; Activity (Mus musculus): Active; inhibition (T47D [21]): Active; inhibition (T47D [22]): Active; inhibition (T47D [23]): Active
CC/C(=C(\c1ccccc1)c1ccc(OCCN(C)C)cc1)c1ccccc1 |  |  |  |  |  |  |  |  |  |  |  |  | inhibition (MCF7 [15]): Active; Activity (MCF7 [18]): Active; Activity (MCF7 [20]): Active; Activity (Mus musculus): inactive
Cc1ncsc1-c1ccc([C@H](C)NC(=O)[C@@H]2C[C@@H](O)CN2C(=O)[C@@H](N)C(C)(C)C)cc1 |  |  |  |  |  |  |  |  |  |  |  |  | Activity [24]: inactive; Activity [25]: inactive
COc1ccc(N(CC(F)(F)F)S(=O)(=O)C2CC3OC2C(c2ccc(O)cc2)=C3c2ccc(O)cc2)cc1 (centres undefined) |  |  |  |  |  |  |  |  |  |  |  |  | Activity [26]: Active; Activity (Estrogen receptor beta [27]): Active
Cc1ncsc1-c1ccc([C@H](C)NC(=O)[C@@H]2C[C@H](O)CN2C(=O)[C@@H](NC(=O)CCCCCOc2ccc(N(CC(F)(F)F)S(=O)(=O)C3CC4OC3C(c3ccc(O)cc3)=C4c3ccc(O)cc3)cc2)C(C)(C)C)cc1 (some centres undefined) | > 50 | 2.54 | > 50 | > 100 | > 50 | 15.7 | > 50 | 6.2 | > 50 | > 100 | 1.6 | 0.05 | Activity [13]: inactive
CCN(c1ccc(OC)cc1)S(=O)(=O)C1CC2OC1C(c1ccc(O)cc1)=C2c1ccc(O)cc1 (centres undefined) |  | 0.19 |  |  |  | 2.54 |  | 13.1 |  |  | 3.39 | 0.31 | Activity (Estrogen receptor beta [28]): inactive; Activity [29]: inactive; Activity [30]: inactive; Activity [25]: inactive
